These results are taken from US11147782B1, “GHB formulation and method for its manufacture” (JAZZ PHARMACEUTICALS IRELAND LIMITED, priority 2015, dated 2021).

Series [1] in a line: Affinity for the exchange site of the anion exchange resin, estimated from pKa. The class given is physicochemical. The note with it: estimated from pKa relative to other short-chain fatty acids.
Text: The affinity can be estimated based on the pKa of GHB (4.44) relative to other short-chain fatty acids for which affinities are known.
The conditions of series [2]: Xyrem solution is 500 mg/mL (42 wt %); solubility limit considerably higher; cited from earlier work.

Molecules are shown by their SMILES.

In the case of `O=C(O)O` [Bicarbonate], the “affinity relative to chloride on the anion exchange resin” value in series [1] is listed as “about 27%”.
For `O=C(O)CCCO` [sodium oxybate, Sodium oxybate], in series [2], the “solubility limit in water” value is reported as greater than 500 mg/mL.
